# In patent publication US11827628B2, “Compositions and methods for inhibition of the JAK pathway” (Rigel Pharmaceuticals, Inc., priority 2005, dated 2023):
# Read-outs that look alike come from different tables or passages of the source.
# Test system: IL-4 stimulated expression of CD23 in human Ramos B cells (JAK-1 and JAK-3)
# Assay: Assay for Ramos B-Cell Line Stimulated with IL-4 (CD23 upregulation, FACS)
# Assay type: cell-based
# Conditions: read-out: IC50, Example 41
# How it was run: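 Log-phase Ramos cells, 1 h compound pre-incubation at 37 °C; IL-4 50 units/mL final, 20-24 h; CD23-PE stain, FACS; IC50.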
# [1] = Homo sapiens, Ramos, Ramos B-cell line stimulated with IL-4, CD23 expression by FACS
# [2] = Ramos B cells stimulated with IL-4, CD23 expression by FACS
# [3] = Homo sapiens, Ramos, Ramos B cells stimulated with IL-4, CD23 expression by FACS
# [4] = Ramos B-cell line stimulated with IL-4, CD23 expression by FACS
molecule,measurement,setting,value
"NC(=O)COc1ccc(Nc2nc(Nc3ccc(S(N)(=O)=O)cc3)ncc2F)cc1F [Compound I-100, N4-(4-Aminocarbonylmethoxy-3-fluorophenyl)-N2-(4-aminosulfonylphenyl)-5-fluoro-2,4-pyrimidinediamine]",IC50,[1],380 nM
"CNC(=O)COc1ccc(Nc2nc(Nc3ccc(S(N)(=O)=O)cc3)ncc2F)cc1 [Compound I-143, N2-(4-Aminosulfonylphenyl)-5-fluoro-N4-(4-methylaminocarbonylmethoxyphenyl)-2,4-pyrimidinediamine]",IC50,[1],1190 nM
"Cc1ccc(Nc2ncc(F)c(Nc3ccc4sc(CCC#N)cc4c3)n2)cc1S(N)(=O)=O [Compound V-16, N2-(3-Aminosulfonyl-4-methylphenyl)-N4-(2-cyanoethylene-benzothiophen-5-yl)-5-fluoro-2,4-pyrimidinediamine]",IC50,[2],8370 nM
"CNS(=O)(=O)c1ccc(Nc2ncc(F)c(Nc3ccc(OC(F)(F)F)c(Cl)c3)n2)cc1OC [IX-53, N4-(3-Chloro-4-trifluoromethoxyphenyl)-5-fluoro-N2-[4-(N-methyl)aminosulfonyl-3-methoxyphenyl]-2,4-pyrimidinediamine]",IC50,[3],240 nM
"CNS(=O)(=O)c1cc(Nc2ncc(F)c(Nc3ccc(C(=O)N4CCN(S(C)(=O)=O)CC4)cc3)n2)ccc1C [IX-31, 5-Fluoro-N2-[3-(N-methylaminosulfony)-4-methylphenyl]-5-fluoro-N4-[4-(1-methanesulfonyl-4-piperizinyl)carbonylphenyl]-2,4-pyrimidinediamine]",IC50,[2],1400 nM
"CNS(=O)(=O)c1cc(Nc2ncc(F)c(Nc3ccc(C(=O)N4CCSCC4)cc3)n2)ccc1C [IX-33, 5-Fluoro-N2-[3-(N-methylaminosulfony)-4-methylphenyl]-5-fluoro-N4-[4-(4-thiomorpholino)carbonylphenyl]-2,4-pyrimidinediamine]",IC50,[2],521 nM
"N4-(2-Amino-3-methoxypyrid-6-yl)-N2-[3-(ethoxycarbonylmethylene)aminosulfonylphenyl)-5-fluoro-2,4-pyrimidinediamine [VII-10]",IC50,[2],863 nM
"COc1ccc(Nc2nc(Nc3ccncc3S(N)(=O)=O)ncc2F)cc1Cl [VI-31, N2-(3-Aminosulfonylpyrid-4-yl)-N4-(3-chloro-4-methoxyphenyl)-5-fluoro-2,4-pyrimidinediamine]",IC50,[3],18300 nM
"Cc1ccc(Nc2ncc(F)c(Nc3ccc(OCC(N)=O)c(CO)c3)n2)cc1S(N)(=O)=O [Compound I-106, N4-(4-Aminocarbonylmethoxy-3-hydroxymethylphenyl)-N2-(3-aminosulfonyl-4-methylphenyl)-5-fluoro-2,4-pyrimidinediamine]",IC50,[1],2950 nM
"COc1ccc(N(C)c2nc(Nc3ccc(C)c(S(N)(=O)=O)c3)ncc2F)cc1Cl [VI-19, N2-(3-Aminosulfonyl-4-methylphenyl)-N4-(3-chloro-4-methoxyphenyl)-5-fluoro-N4-methyl-2,4-pyrimidinediamine]",IC50,[3],1030 nM
"CNS(=O)(=O)c1ccc(Nc2ncc(F)c(Nc3ccc(OC)c(OC)c3)n2)cc1OC [IX-50, N4-(3,4-Dimethoxyphenyl)-5-fluoro-N2-[4-(N-methyl)aminosulfonyl-3-methoxyphenyl]-2,4-pyrimidinediamine]",IC50,[3],179 nM
"N2-(3-Aminocarbonyl-5-methylphenyl)-5-fluoro-N2-[4-(1-methylpyrazol-3-yl)amidophenyl)-2,4-pyrimidinediamine [II-19]",IC50,[4],395 nM
CCN(CC)S(=O)(=O)c1ccc(OC)c(Nc2nc(Nc3ccc4c(c3)NC(=O)C(C)(C)O4)cc(C(=O)OC)n2)c1 [Compound X-2],IC50,[3],1840 nM
"NS(=O)(=O)c1cccc(Nc2ncc(F)c(Nc3ccc(O)cc3)n2)c1 [VI-101, N2-(3-Aminosulfonylphenyl)-5-fluoro-N4-(4-hydroxyphenyl)-2,4-pyrimidinediamine]",IC50,[3],919 nM
"CCCCNS(=O)(=O)c1cccc(Nc2ncc(F)c(Nc3ccc(F)c(Cl)c3)n2)c1 [VI-97, N2-(3-Butylaminosulfonylphenyl)-N4-(3-chloro-4-fluorophenyl)5-fluoro-2,4-pyrimidinediamine]",IC50,[3],3010 nM
"CN1CCN(S(=O)(=O)c2cccc(Nc3ncc(F)c(Nc4cccc(OCC(N)=O)c4)n3)c2)CC1 [Compound I-89, N4-(3-Aminocarbonylmethoxy)phenyl-5-fluoro-N2-[3-(4-methylpiperazin-1-yl)sulfonyl]phenyl-2,4-pyrimidinediamine]",IC50,[4],5500 nM
"CCCCNS(=O)(=O)c1cccc(Nc2ncc(F)c(Nc3ccc(C)c(C#N)c3)n2)c1 [VI-96, N2-(3-Butylaminosulfonylphenyl)-N4-(3-cyano-4-methylphenyl)-5-fluoro-2,4-pyrimidinediamine]",IC50,[3],803 nM
"CCOc1cc(Nc2nc(Nc3ccc(C)c(S(=O)(=O)NC)c3)ncc2F)ccc1-c1ccccn1 [Compound I-170, 5-Fluoro-N2-[3-N-(methyl)aminosulfonyl-4-methylphenyl]-N4-[4-(2-pyridinyl)-3-methylmethyleneoxyphenyl]-2,4-pyrimidinediamine]",IC50,[4],451 nM
"COC(=O)CNS(=O)(=O)c1cccc(Nc2ncc(F)c(Nc3ccc(OC)c(Cl)c3)n2)c1 [VI-7, N4-(3-Chloro-4-methoxyphenyl)-5-fluoro-N2-[3-(N-methoxycarbonylmethylene)aminosulfonylphenyl]-2,4-pyrimidinediamine]",IC50,[2],766 nM
"CNS(=O)(=O)c1cc(Nc2ncc(F)c(Nc3ccc(C(=O)N4CCS(=O)(=O)CC4)cc3)n2)ccc1C [IX-39, N4-[4-(1,1-dioxo-4-thiomorpholinyl)carbonylphenyl]-5-Fluoro-N2-[3-(N-methylaminosulfony)-4-methylphenyl]-2,4-pyrimidinediamine]",IC50,[2],1400 nM
"CN(C(=O)CC#N)c1ccc(Nc2nc(Nc3cccc(S(N)(=O)=O)c3)ncc2F)cc1 [Compound I-86, N2-(3-Aminosulfonylphenyl)-N4-[4-(N-cyanoacetyl-N-methyl)aminophneyl]-5-fluoro-2,4-pyrimidinediamine]",IC50,[4],916 nM
"NC(=O)c1c[nH]c2cc(Nc3nc(Nc4ccc(Cl)c(S(N)(=O)=O)c4)ncc3F)ccc12 [IX-10, N4-[3-(Aminocarbonyl)-1H-indol-6-yl]-N2-(3-aminosulfonyl-4-chlorophenyl)-5-fluoro-2,4-pyrimidinediamine]",IC50,[3],6410 nM
"CNS(=O)(=O)c1ccc(Nc2ncc(F)c(Nc3cccc(O)c3)n2)cc1OC [VI-1, 5-Fluoro-N4-(3-hydroxyphenyl)-N2-[4-(N-methyl)aminosulfonyl-3-methoxyphenyl]-2,4-pyrimidinediamine]",IC50,[3],205 nM
"Cc1ccc(Nc2ncc(F)c(Nc3ccc(CCNC(N)=O)cc3)n2)cc1S(N)(=O)=O [VI-71, N4-{4-[2-(Aminocarbonylamino)ethyl]phenyl}-N2-(3-aminosulfonyl-4-methylphenyl)-5-fluoro-2,4-pyrimidinediamine]",IC50,[3],1070 nM
"Cc1ccc(Nc2ncc(F)c(NC3CNCCC3C)n2)cc1S(N)(=O)=O (racemic) [VII-4, Racemic N2-(3-aminosulfonyl-4-methylphenyl)-5-fluoro-N4-(4-methylpiperidin-3-yl)-2,4-pyrimidinediamine]",IC50,[2],2490 nM
"CCN(CC)S(=O)(=O)c1ccc(OC)c(Nc2nc(Nc3ccc(Cl)c(Cl)c3)cc(C(=O)OC)n2)c1 [Compound X-1, 6-carbonylmethoxy-N4-(3,4-dichlorophenyl)-N2-(3-N,N-diethylaminosulfonyl-6-methoxyphenyl)-2,4-pyrimidinediamine]",IC50,[3],8250 nM
"COc1cc(Nc2nc(Nc3cccc(S(N)(=O)=O)c3)ncc2F)ccc1OCC(N)=O [Compound I-104, N4-(4-Aminocarbonylmethoxy-3-methoxyphenyl)-N2-(3-aminosulfonylphenyl)-5-fluoro-2,4-pyrimidinediamine]",IC50,[1],1430 nM
"COc1ccc(CN2C(=O)C(C)Oc3ccc(Nc4nc(Nc5cccc(S(N)(=O)=O)c5)ncc4F)cc32)cc1 (racemic) [Compound V-5, Racemic N2-(3-Aminosulphonylphenyl)-5-fluoro-N4-[2-methyl-3-oxo-4-(4-methoxybenzyl)-benz[1,4]oxazin-6-yl]-2,4-pyrimidinediamine]",IC50,[2],696 nM
"Cc1ccc(Nc2ncc(F)c(N[C@@H]3CCN(C(=O)CC#N)C3)n2)cc1S(N)(=O)=O [IX-45, N2-(3-Aminosulfonyl-4-methylphenyl)-N4-[(4R)-1-(2-cyanoacetyl)-pyrrolidin-4-yl)-5-fluoro-2,4-pyrimidinediamine]",IC50,[3],3620 nM
"CNS(=O)(=O)c1ccc(Nc2ncc(F)c(Nc3ccc4c(c3)NC(=O)C(C)(C)O4)n2)cc1OC [VII-37, N4-(2,2-Dimethyl-3-oxo-4H-benz[1,4]oxazin-6-yl)-5-fluoro-N2-[4-(N-methyl)aminosulfonyl-3-methoxyphenyl]-2,4-pyrimidinediamine]",IC50,[3],28.1 nM
"O=S(=O)(c1ccc(Nc2ncc(F)c(Nc3ccc4c(c3)OCCO4)n2)cc1)N1CCCC1 [VII-24, N4-(3,4-Ethylenedioxyphenyl)-5-fluoro-N2-[4-(pyrrolidin-1-ylsulfonyl)phenyl]-2,4-pyrimidinediamine]",IC50,[3],623 nM
"Cc1cc(COc2ccc(N(C)c3nc(Nc4ccc(C)c(S(N)(=O)=O)c4)ncc3F)cc2)no1 [Compound I-225, N2-(3-Aminosulfonyl-4-methylphenyl)-5-fluoro-N4-methyl-N4-[4-(5-methylisoxazol-3-yl)methyleneoxyphenyl]-2,4-pyrimidinediamine]",IC50,[4],700 nM
"CN(C)C(=O)COc1ccc(Nc2nc(Nc3cccc(S(N)(=O)=O)c3)ncc2F)cc1 [Compound I-129, N2-(3-Aminosulfonylphenyl)-N4-(4-dimethylaminocarbonylmethoxyphenyl)-5-fluoro-2,4-pyrimidinediamine]",IC50,[1],612 nM
"N2-(4-aminosulfonyl)phenyl-5-fluoro-N4-(4-thiomethylcarbonyl)phenyl-2,4-pyrimidinediamine [VI-94]",IC50,[2],944 nM
